{"source": "paper PMC9652379", "about": "“Safety evaluations of a synthetic antimicrobial peptide administered intravenously in rats and dogs” (Scientific Reports, 2022)", "tested_on": "rats", "assay": "Respiratory function in rats (whole body plethysmography)", "format": "in vivo, rat", "details": "rats, 15 mg/kg single iv injection, positive control", "procedure": "The possible side-effects of SET-M33 on respiratory function were evaluated after administration of the peptide as a single intravenous bolus at doses of 5, 9 and 15 mg/kg with vehicle (eight animals/group). Respiratory rate, tidal volume and minute volume were assessed. As in the case of neurological toxicity and the 4-week toxicity study, again the dose levels were selected on the basis DRF (above). Baclofen, a muscle relaxer and antispasmodic used to treat muscle pain, spasms and stiffness in people with multiple sclerosis or spinal cord injury or disease, was used as positive control. It was administered as a single intravenous injection at a dose of 15 mg/kg.\nWhole body, bias flow plethysmography equipment was used[51]. Respiratory parameters (respiratory rate, tidal volume and minute volume) were derived from the changes in pressure associated with the warming and humidification of the air breathed in by the animal. This was monitored by specific probes located in the plethysmograph chambers. Bias flow (room air) was set at approximately 2.5 L/min. On a day prior to the first day of dosing, all animals were habituated to the plethysmographs for approximately 2 h. The study was run over 4 days and 10 animals (two from each group) were examined each day. On the day of dosing, the animals were placed in the plethysmographs for pre-dose recording (session 1) of respiratory parameters for 60 min. Groups of 8 rats were then removed from the chambers and dosed by intravenous bolus injection with vehicle, SET-M33 or positive control. Immediately after dosing, the rats were placed in the whole body plethysmographs, where they could move about freely, to continuously record respiratory parameters for 4 h post-dose (undisturbed recording). Immediately after the last post-dose recording, the animals were killed humanely by a rising concentration of carbon dioxide. Death was confirmed by dislocation of the neck. Respiratory parameters were reported at the following time points: 0, 30, 60, 90, 120, 150, 180, 210 and 240 min. Time 0 coincided with the mean value of the last 20 min of data recorded in the 60-min pre-dose period. All other time points were the mean of 10-min recordings (an average of every 10 breaths) around each time point. Each post-dose time point was analysed separately by analysis of covariance. Factors in the model were group and day of data collection, with pre-dose values as covariate."}
{"smiles": "NCC(CC(=O)O)c1ccc(Cl)cc1", "note": "(centres unmarked) [Baclofen, reference compound]", "values": [{"measurement": "respiratory rate vs vehicle", "value": "sharp, statistically significant decrease"}, {"measurement": "tidal volume and minute volume vs vehicle", "value": "sharp, statistically significant increases"}]}
